Measurements from patent publication US6355799B1, “Substituted benzene compounds, process for their preparation, and herbicidal and defoliant compositions containing them” (ISK Americas Incorporated, priority 1997, dated 2002).

Legend:
Format in all cases: in vivo
[1] = tested on: redroot pigweed (Amaranthus retroflexus, AMARE); test: Pre-emerge test, greenhouse herbicide activity screening; conditions: pre-emerge; for Pre-emerge Herbicidal Activity AMARE (phytotoxicity rating, scale 0-100): rated 14 days after application, 0 = no damage, 100 = complete death; for phytotoxicity rating AMARE: 14 days after application, rating scale 0-100
Outline: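 Visual ratings on a 0-100 scale (0 no damage, 100 all plants dead) were taken at 14 days after treatment. Rates of 15-1000 g ai/ha in acetone, 187 l/ha, were sprayed onto soil one day after planting (pre-emerge) or onto 2-3 leaf plants with 0.25% v/v surfactant (post-emerge).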

[2] = tested on: cocklebur (Xanthium strumarium, XANST); test: as above; conditions: 14 days after application, rating scale 0-100
[3] = tested on: common ragweed (Ambrosia artemisizfolia L., AMBEL); test: as above; conditions: pre-emerge, rated 14 days after application, 0 = no damage, 100 = complete death
Outline: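 Compounds in acetone were track-sprayed at 15–1000 g ai/ha: pre-emergence onto soil sown the previous day, then top-watered to incorporate and later bottom-watered; post-emergence onto 2–3 leaf plants with 0.25% v/v surfactant, bottom-watered only. Ratings on a 0–100 phytotoxicity scale were taken at day 14.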

[4] = tested on: weed species; test: Standard greenhouse herbicide activity screening, overall statements on weeds; conditions: comparison with compound 2 of Japanese Pat. No. Toku Kai Hei 5-25144 (Table XIX)
Excerpt: A standard greenhouse herbicide activity screening system was used to evaluate the herbicidal efficacy and crop safety of these test compounds. Seven broadleaf weed species including redroot pigweed (Amaranthus retroflexus, AMARE, velvetleaf (Abutilon theophrasti, ABUTH), sicklepod (Cassia obtusifolia, CASOB), ivyleaf morningglory (Ipomoea hederacea, IPOHE), lambsquarters (Chenopodium album, CHEAL), common ragweed (Ambrosia artemisizfolia L., AMBEL), and cocklebur (Xanthium strumarium, XANST) were used as test species. Four grass weed species including green foxtail (Setaria viridis, SETVI), barnyardgrass (Echinochloa crus-galli, ECHCG), johnsongrass (Sorghum halepense, SORHA), and large crabgrass (Digitaria sanguinalis, DIGSA) were also used. In addition, three crop species, field corn (Zea mays L., var. Dekalb 535, CORN), soybean (Glycine max L., var. Pella 86, SOY), and is upland rice (Oryza sp., var. Tebonnet, RICE) were included.
All plants were grown in 10 cm square plastic pots which were filled with a sandy loam soil mix. For pre-emerge tests, seeds were planted one day prior to application of the test compounds. For post-emerge tests, seeds were planted 8-21 days prior to the test to allow emergence and good foliage development prior to application of the test substances. […]
At 14 days after application of the test materials, phytotoxicity ratings were recorded. […]

[5] = tested on: redroot pigweed (Amaranthus retroflexus, AMARE); test: Post-emerge test, greenhouse herbicide activity screening; conditions: Amaranthus retroflexus, post-emergence, 336 h, phytotoxicity rating 0-100 (0 no damage, 100 complete death), 14 days after application, read-out: Post-emerge Herbicidal Activity AMARE
Outline: (§1)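 Applied at 15–1000 g ai/ha from acetone in 187 l/ha spray volume. Post-emergence applications included 0.25% v/v non-ionic surfactant and reached plants sown 8–21 days before. Pre-emergence applications were incorporated by surface watering. Efficacy or crop damage was rated on a 0–100 scale after 14 days.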

[6] = tested on: common ragweed (Ambrosia artemisizfolia L., AMBEL); test: as above; conditions: phytotoxicity rating 0-100 (0 no damage, 100 complete death), 14 days after application
Outline: as §1

[7] = tested on: large crabgrass (Digitaria sanguinalis, DIGSA); test: as above; conditions: Digitaria sanguinalis, post-emergence, 336 h, phytotoxicity rating 0-100 (0 no damage, 100 complete death), 14 days after application, read-out: Post-emerge Herbicidal Activity DIGSA
Outline: as §1

COc1c(Cl)cc(F)c(-n2c(=O)cc(C(F)(F)F)n(C)c2=O)c1N [Compound 1-4, 3-(2-amino-4-chloro-6-fluoro-3-methoxyphenyl)-1-methyl-6-trifluoromethyl-2,4(1H, 3H)-pyrimidinedione]
Pre-emerge Herbicidal Activity AMARE (phytotoxicity rating, scale 0-100) ([1]; 63 g ai/ha): 100 | Pre-emerge Herbicidal Activity AMARE (phytotoxicity rating, scale 0-100) ([1]; 250 g ai/ha): 100 | phytotoxicity rating AMARE ([1]; 3.9 g ai/ha): 30 | phytotoxicity rating AMARE ([1]; 7.8 g ai/ha): 100 | phytotoxicity rating AMARE ([1]; 15.6 g ai/ha): 90 | phytotoxicity rating AMARE ([1]; 31.3 g ai/ha): 100 | phytotoxicity rating AMARE ([1]; 62.5 g ai/ha): 100 | phytotoxicity rating AMARE ([1]; 125 g ai/ha): 100 | phytotoxicity rating AMARE ([1]; 250 g ai/ha): 100 | phytotoxicity rating XANST ([2]; 3.9 g ai/ha): 0 | phytotoxicity rating XANST ([2]; 7.8 g ai/ha): 0 | phytotoxicity rating XANST ([2]; 15.6 g ai/ha): 20 | phytotoxicity rating XANST ([2]; 31.3 g ai/ha): 10 | phytotoxicity rating XANST ([2]; 62.5 g ai/ha): 50 | phytotoxicity rating XANST ([2]; 125 g ai/ha): 50 | phytotoxicity rating XANST ([2]; 250 g ai/ha): 90 | Pre-emerge Herbicidal Activity AMBEL (phytotoxicity rating, scale 0-100) ([3]; 63 g ai/ha): 100 | Pre-emerge Herbicidal Activity AMBEL (phytotoxicity rating, scale 0-100) ([3]; 250 g ai/ha): 100 | pre-emerge herbicidal activity [4]: high level of activity | pest or weed control at 63 g/ha ([5]; 63 g ai/ha): 30% | pest or weed control at 250 g/ha ([5]; 250 g ai/ha): 95% | Post-emerge Herbicidal Activity AMBEL ([6]; 63 g ai/ha): 50 | Post-emerge Herbicidal Activity AMBEL ([6]; 250 g ai/ha): 90 | pest or weed control at 63 g/ha ([7]; 63 g ai/ha): 0% | pest or weed control at 250 g/ha ([7]; 250 g ai/ha): 50%
